Source: patent EP3381907A1, “SYMMETRICAL 2-AMINOPHENYL-BENZAZOLYL-5-ACETATE COMPOUNDS AND THEIR USE AS ANTI-HEPARANASE” (Leadiant Biosciences SA, priority 2017, dated 2018)

Key:
[1] = system: U2OS (human osteosarcoma); experiment: SRB Cell Cytotoxicity Assay, U2OS; format: cell-based; settings: 72h treatment, read-out: Concentration (µM) of test compounds at which the cell growth is inhibited by 50 %. U2OS
From the text: (§1) SRB Cell Cytotoxicity Assay is an assay based upon the quantitative staining of cellular proteins by sulforhodamine B (SRB). This assay can be used for high-throughput drug screening (Vichai & Kirkitara, Nature Protocol. 2006, 1, 112). Sulforhodamine B is an anionic aminoxanthene dye that forms an electrostatic complex with the basic amino acid residues of proteins under moderately acid conditions, which provides a sensitive linear response.
(§2) To assess a putative antiproliferative activity of the selected compounds, HT1080 (human fibrosarcoma), U87MG (human glioblastoma astrocytoma) and U2OS (human osteosarcoma) cell lines were treated for 72h, in triplicate, with increasing concentrations of heparanase inhibitors. Inhibition of cell proliferation was then measured by the classical colorimetric SRB Cell Cytotoxicity assay. Absorbance was measured by spectrophotometer at a wavelength of 510 nm and cell proliferation was determined as percent with respect to control cells (cells treated with the vehicle alone). EC50 values were then determined by GraphPad Prism.

[2] = system: VEGF; experiment: Real-Time quantitative PCR of VEGF mRNA in HT1080 cells; format: cell-based, human; settings: 24 h
Description: (§3) To evaluate the effect of heparanase inhibitors on the tumor transcription of genes encoding for proangiogenic factors, such as FGF1/2, VEGF, MMP-9, HSPE-1, the relative mRNA levels were analyzed by quantitative Real-Time Quantitative PCR. To perform the assay, HT1080 (human fibrosarcoma) cells were cultured in complete medium containing 10%FCS (fetal calf serum). Cells were plated in 24-well plates and treated at fixed concentration (i.e., highest non-toxic concentration) of test compounds. After 24 h, cells were detached, collected and total RNA extracted by RNeasy Mini Kit (QIAGEN). Following reverse transcription step, FGF1/2, VEGF, MMP-9, HSPE-1 mRNA levels, were quantified by qPCR using the advanced Universal SYBR Green Supermix (Bio Rad) and ABI PRISM 7900HT Thermal Cycler System (Perkin Elmer), according to the manufacturer's instructions. Appropriate no-RT and non-template controls were included in each 96-well PCR reaction, and dissociation analysis was performed at the end of each run to confirm the specificity of the reaction. Relative levels of RNA were calculated using the ddCt method. Standard curve and sample data were run in duplicate.
(§4) In the Table 5 a mean value is reported.

[3] = system: U87MG (human glioblastoma astrocytoma); experiment: Cell adhesion assay on matrigel coated wells, U87MG; format: cell-based; settings: test compound at 2.5 µM, percent of adhesion with respect to the control (100%)
Description: (§5) Cell surface, non-integrin molecules such as heparan sulfate proteoglycans (HSPGs) may be involved in the regulation of early adhesive stages of cell-ECM interactions. A cell adhesion assay has been employed to determine if the newly designed heparanase inhibitors were able to interfere with adhesion properties of cancer cells.
(§6) HT1080 (human fibrosarcoma) and U87MG (human glioblastoma astrocytoma) cells were treated for 18-20 h with test compounds in complete medium supplemented with 10% FCS. Then cells were collected, washed in complete medium, and added to matrigel coated wells in triplicate, at previously identified optimal seeding density, and incubated at 37 °C in complete medium for times ranging from 15 minutes to 4h, according to the cell line. After incubation, the wells were washed three times with serum-free medium and the remaining firmly attached cells were stained with crystal-violet 0.1%. Optical density was measured at 560 nm by Victor 3 (Perkin-Elmer) plate analyzer. Each experiment was repeated three times.
(§7) Table 3. […] In Invasion assay, data were expressed as the percent invasion (range) with respect to cell migration through uncoated insert membrane. In Adhesion assay, data were expressed as the percent of adhesion with respect to the control (100%). • Legend • ++: 50-90% • + : < 50% • - : Not Active

[4] = system: U2OS (human osteosarcoma); experiment: Matrigel cell invasion assay, U2OS; format: cell-based; settings: Homo sapiens, test compound at 2.5 µM, 24 h pre-treatment, 24 h invasion
Description: (§8) Heparanase inhibitors were then evaluated for their activity on the invasive potential of HT1080 (human fibrosarcoma), U87MG (human glioblastoma astrocytoma) and U2OS (human osteosarcoma) human cell lines, using the Matrigel cell invasion assay which allows to assess the cell invasion ability of malignant and normal cells.
(§9) Invasion assay was performed using BioCoat cell culture inserts (BioCoat 8.0µm PET Membrane 24 Well Permeable Supports, Corning). Filters were coated with 100 µl of 300 µg/ml Matrigel dissolved in coating buffer (0.01 M Tris pH 8.0, 0.7% NaCl) (Becton-Dickinson Sciences). DMEM (Dulbecco's Modified Eagle's Medium) containing 5% FBS was added to the lower chambers. Cells were pre-treated with heparanase inhibitors for 24 h, detached and added to the upper chambers in media containing the inhibitors. Cells were allowed to invade for 24 h at 37°C in a CO2 incubator and then unmigrated cells were removed from the upper chamber with a cotton swab. The invading cells were fixed, stained with 0.1% crystal violet for 10 min at room temperature, photographed and counted under inverted microscope.
(§10) Test compounds were analyzed at fixed concentration (2.5 µM) for several fields, in duplicates. Activity of test compounds was compared to the reference compound. Activity of most interesting compound was confirmed in a second cell invasion assay. Data were expressed as the percent invasion with respect to cell migration through uncoated insert membrane (see Table 3 below)
as §7

[5] = system: FGF-2; experiment: Real-Time quantitative PCR of FGF-2 mRNA in HT1080 cells; format: cell-based, human; settings: 24 h
Description: as §3, §4

[6] = system: U87MG (human glioblastoma astrocytoma); experiment: SRB Cell Cytotoxicity Assay, U87MG; format: cell-based; settings: U-87 MG, 72h treatment, read-out: Concentration (µM) of test compounds at which the cell growth is inhibited by 50 %. U87MG
From the text: as §1, §2

[7] = system: FGF-1; experiment: Real-Time quantitative PCR of FGF-1 mRNA in HT1080 cells; format: cell-based, human; settings: 24 h
Description: as §3, §4

[8] = system: HT1080 (human fibrosarcoma); experiment: Matrigel cell invasion assay, HT1080; format: cell-based; settings: HT-1080, HT1080, test compound at 2.5 µM, 24 h pre-treatment, 24 h invasion
Description: as §8, §9, §10, §7

[9] = system: HPSE-1; experiment: Real-Time quantitative PCR of HPSE-1 mRNA in HT1080 cells; format: cell-based, human; settings: 24 h
Description: as §3, §4

[10] = system: HT1080 (human fibrosarcoma); experiment: Cell adhesion assay on matrigel coated wells, HT1080; format: cell-based; settings: HT1080, test compound at 2.5 µM; percent of adhesion with respect to the control (100%)
Description: as §5, §6, §7

For `O=C(O)CNC(=O)Cc1ccc2oc(-c3ccc(NC(=O)Nc4ccc(-c5nc6cc(CC(=O)NCC(=O)O)ccc6o5)cc4F)c(F)c3)nc2c1` [Compound 25, 2,2'-((2,2'-(((Carbonylbis(azanediyl))bis(3-fluoro-4,1-phenylene))bis(benzo[d]oxazole-2,5-diyl))bis(acetyl))bis(azanediyl))diacetic acid], the EC50 [1] was > 10 µM, the “Gene Expression (% mRNA vs. control) VEGF” value ([2]; 10.0 uM) was “∼ 63%” and the “Adhesion Assay (%) U87MG” value [3] was 12.30%. The inhibition at 2.5 µM [4] was < 50%, the “Gene Expression (% mRNA vs. control) FGF-2” value ([5]; 10.0 uM) was “∼ 68%” and the EC50 [6] was > 10 µM. The “Gene Expression (% mRNA vs. control) FGF-1” value ([7]; 10.0 uM) was “∼ 52%”, the inhibition at 2.5 µM [8] was 50 to 90% and the “Gene Expression (% mRNA vs. control) HPSE-1” value ([9]; 10.0 uM) was “∼ 62%”. For the same compound, the “Adhesion Assay (%) HT1080” value [10] was 81.60%.
For `O=C(O)Cc1ccc2oc(-c3ccc(NC(=O)Nc4ccc(-c5nc6cc(CC(=O)O)ccc6o5)cc4F)c(F)c3)nc2c1` [Compound 20, 2,2'-(((Carbonylbis(azanediyl))bis(3-fluoro-4,1-phenylene))bis(benzo[d]oxazole-2,5-diyl))diacetic acid], the EC50 [1] was > 10 µM, the “Gene Expression (% mRNA vs. control) VEGF” value ([2]; 2.5 uM) was “∼ 72%” and the “Adhesion Assay (%) U87MG” value [3] was 64.90%. The inhibition at 2.5 µM [4] was 50 to 90%, the “Gene Expression (% mRNA vs. control) FGF-2” value ([5]; 2.5 uM) was “∼ 88%” and the EC50 [6] was > 10 µM. For the same compound, the “Gene Expression (% mRNA vs. control) FGF-1” value ([7]; 2.5 uM) was “∼ 85%”, the inhibition at 2.5 µM [8] was < 50% and the “Gene Expression (% mRNA vs. control) HPSE-1” value ([9]; 2.5 uM) was “∼ 100%”. The “Adhesion Assay (%) HT1080” value [10] was 83.25%.
